The values that follow come from patent US20130143894A1 (vadel Pharma Inc., priority 2010, published 2013).

For data set [1] the following is noted: cited from earlier work.
Data set [2] can be described thus: Safety / tolerability in the relative bioavailability study. In kind it is in vivo, human. As to conditions: oral spray doses of 10 mg, 20 mg, 30 mg and single oral dose of 25 mg (1×25 mg tablet), healthy adult subjects, under fed conditions. The procedure: Assessments include evaluation of changes in orthostatic hypotension, oral irritation, vital sign assessments, 12-lead electrocardiogram (ECG), and clinical assessments.
After dosing, the following activities were completed: • Both objective and subjective oral irritation assessments were performed immediately after dosing and at one hour after dose administration. • A fast was maintained until at least four hours after dosing. During the study confinement period, fluid consumption resumed no sooner than one hour after dose administration. […]
• Blood sample collections were obtained as per the profile. • Supine and standing blood pressure and heart rate was measured at approximately 24 hours after each dose. • All subjects were evaluated for the presence of any adverse events prior to release from the study site. • Prior to release, subjects were evaluated to ensure it was safe for them to be released from the study site. • Subjects were released from the study site at approximately 24 hours after dose administration.

Where a name gives a salt, the structure may show the parent alone.

`CCCc1nn(C)c2c(=O)[nH]c(-c3cc(S(=O)(=O)N4CCN(C)CC4)ccc3OCC)nc12` [sildenafil, 1-[[3-(6,7-dihydro-1-methyl-7-oxo-3-propyl-1H-pyrazolo[4,3-d]pyrimidin-5-yl)-4-ethoxyphenyl]sulfonyl]-4-methylpiperazine]: in data set [1] (after oral administration (tablet)), the absolute bioavailability was 41%. Moreover, the “mean steady state volume of distribution (Vss)” value in data set [1] (in vivo) is given as 105 L. For the compound `CCCc1nn(C)c2c(=O)[nH]c(-c3cc(S(=O)(=O)N4CCN(C)CC4)ccc3OCC)nc12` [sildenafil citrate], the tolerability result in data set [2] was “well tolerated”.
